Data: PMC2904697, “A Screen for Kinetochore-Microtubule Interaction Inhibitors Identifies Novel Antitubulin Compounds” (PLoS ONE, 2010)

What was measured:
[1] = tested on: hTERT RPE-1, HCT-116 and A2780 cell lines; assay: Viability analysis (CellTiter 96 Assay); assay type: cell-based; conditions: Homo sapiens, 72 h, A2780 and HCT-116 cells, 3 d, 1–1000 nmol/l, read-out: IC50 for killing of cells (viability)
Method: RPE, a telomerase-immortalized cell line derived from retinal pigment epithelium, served as the non-cancer control. Antitubulin agents colchicine and nocodazole were used as controls for drug activity. The RPE, A2780, and HCT-116 cells were efficiently killed by compound A8 and the control drugs.
Viability analysis in the presence of antitubulin drugs was performed on hTERT RPE-1 (ATCC), HCT-116 (ATCC), and A2780 (EACC) cell lines. Cell lines were authenticated by PCR [22]. Absence of eight commonly encountered mycoplasma species was confirmed by PCR [23]. Experiments were performed with freshly thawed cells, which were seeded in 96-well MICROTEST tissue culture plates (Falcon) at ∼500 cells/well and grown at 37°C. After 6 h, nocodazole, colchicine or compound A8 were added (1–1000 nmol/l). The cells were incubated for 3 d at 37°C and then assayed for viability (CellTiter 96 Assay, Promega).

[2] = tested on: recombinant CLIP-170^488 binding to taxol-stabilized MTs; assay: CLIP-170^488 binding to taxol-stabilized MTs (specificity control); conditions: compound B at 50 µmol/l
Description: Figure 2 Compound B prevents the recombinant Ndc80 kinetochore complex from binding to taxol-stabilized microtubules. Effect of compound B (50 µmol/l) on binding of the Ndc80^488 complex to rhodamine-labeled, taxol-stabilized MTs as assayed using inverted wide-field fluorescence microscopy. The scale bar represents 4 µm (A). Structure of compound B; 6-furan-2-yl-3-methyl-4-oxo-4,5,6,7-tetrahydro-1H-indole-2-carboxylic acid (tetrahydro-furan-2-yl)methyl ester (B). Measurement of the IC50 value of compound B using total internal reflection fluorescence microscopy. The scale bar represents 4 µm (C). Compound B (50 µmol/l) prevented MT-associating protein CLIP-170^488, used as a specificity control, from binding to taxol-stabilized MTs. The scale bar represents 4 µm (D). […] The scale bar represents 4 µm (E).
A compound inhibiting the Ndc80^488 complex-MT interaction could act either against the complex or against the MTs. To probe the specificity of compound B toward the Ndc80^488 complex, we examined its ability to inhibit MT binding of recombinant CLIP-170^488, a MT plus-end tracking protein.

HeLa cells = assay: Spindle integrity and reversibility in HeLa cells (confocal IF imaging); assay type: cell-based, human; conditions: for Time after washout until all cells had arrested with a mitotic spindle (reversibility): compound B 5 µmol/l, washout and release into MG132 containing medium
Method: At compound B concentrations of 5 µmol/l and above, the cells arrested robustly in metaphase (∼15 h) and then underwent cell death, as diagnosed by cell shrinkage (Fig. 3B). […] This phenotype is indicative of chromatids being unable to bind to spindle MTs and/or of spindle defects, as observed with nocodazole (Fig. 3C). […] Because drugs that inhibit tubulin polymerization also destabilize MTs, we next probed whether compound B destabilized metaphase spindles. We arrested HeLa cells in metaphase using 10 µmol/l of proteosome inhibitor MG132. […] Thus, compound B prevents tubulin assembly and destabilizes spindle MTs in cells.
To probe whether the activity of compound B is reversible or not, we synchronously released G1/S arrested HeLa cells into fresh medium containing 5 µmol/l compound B (nocodazole was used as the positive control). The cells efficiently arrested in […] due to absence of a mitotic spindle (Fig. 3E, left column of images in each set). Compound B and nocodazole were then washed out and the cells were released in MG132 containing medium.
G1/S synchronization with 2.5 mmol/l thymidine was carried out for 16 h. IF imaging (Leica TCS SP2 confocal microscope) was performed on cells fixed with 4% paraformaldehyde, permeabilized with 0.1% Triton X-100 and treated with 4% BSA. The cells were incubated with appropriate antibodies diluted in 4% BSA in PBS. Primary antibodies used in IF imaging were mouse monoclonal antiNdc80 antibody (1∶1000, Genetex Clone 9G3.23), CREST serum (1∶50, Antibodies Incorporation) and mouse monoclonal anti-α-tubulin antibody (1∶2000, Sigma-Aldrich Clone B512). Secondary antibodies used were Alexa Fluor 488 (1∶150), Cy3 (1∶400) and Cy5 (1∶50) (Jackson Immunoresearch).

Structure (SMILES) | IC50 [1] | Effect on binding of CLIP-170^488 to taxol-stabilized MTs [2] | Effect on metaphase spindles of MG132-arrested cells (HeLa cells; HeLa arrested with 10 µmol/l MG132, 10 µmol/l compound) | Spindle formation in cells released from G1/S (HeLa cells; HeLa, 10 µmol/l compound, confocal IF) | Time after washout until all cells had arrested with a mitotic spindle (reversibility) (HeLa cells; HeLa)
CCSCCOC(=O)c1[nH]c2c(c1C)C(=O)C[C@@H](c1ccco1)C2 [A8] | 25 nM |  |  |  | 
Cc1c(C(=O)OCC2CCCO2)[nH]c2c1C(=O)CC(c1ccco1)C2 (stereo not drawn) [compound B, 6-furan-2-yl-3-methyl-4-oxo-4,5,6,7,-tetrahydro-1H-indole-2-carboxylic acid tetrahydro-furan-2-ylmethyl ester] |  | prevented | depolymerized the spindle | All cells lacked a mitotic spindle | ≤ 3 h
COC(=O)Nc1nc2ccc(C(=O)c3cccs3)cc2[nH]1 [nocodazole, reference compound] |  |  |  |  | ≤ 3 h
